# From PMC12649225, “Machine Learning-Identified Potent Antimicrobial Peptides Against Multidrug-Resistant Bacteria and Skin Infections” (Antibiotics, 2025)
# Experiments:
# [1] = test system: BJ human skin fibroblast cells; assay: WST-1 metabolic activity assay (cell viability); conditions: lowest concentration causing <70% metabolic activity (WST-1); BJ fibroblasts; 24 h; DMEM with 2% FBS; 0.05-60 µM
# Procedure: BJ human skin fibroblast cells (ATCC CRL-2522; RRID: CVCL_3653; LGC Standards, Germany (September 2023)) were cultured in Dulbecco’s Modified Eagle Medium (DMEM; Gibco, Waltham, MA, USA) supplemented with 10% (v/v) foetal bovine serum (FBS; Sigma-Aldrich) and 1% (v/v) penicillin/streptomycin (pen/strep; Gibco). Cell suspensions (5 × 10^5 cells/mL) were seeded into 96-well plates (100 μL/well; Thermo Scientific, Waltham, MA, USA) and allowed to adhere for 24 h. Monolayers were then exposed to two-fold serial dilutions of GDST peptides, their RI variants, and reference peptides (final concentrations: 0.05 to 60 µM) in fresh DMEM with 2% (v/v) FBS for 24 h at 37 °C in a humidified atmosphere with 5% CO2.
# Cell viability and membrane integrity were assessed using the water-soluble tetrazolium salt (WST-1; Roche, Basel, Switzerland) assay and the lactate dehydrogenase (LDH; Abcam, Cambridge, UK) assay, respectively, according to manufacturer instructions. Results were expressed as percentages of metabolic activity and LDH leakage relative to untreated control cells and the positive lysis control, respectively. The cytotoxic concentration was defined as the lowest peptide concentration causing <70% metabolic activity and >30% LDH leakage. All experiments were performed in triplicate.
# A. baumannii RUH875 = assay type: cell-based
# Procedure: (§1) The bacterial strains used in this study included S. aureus JAR060131 [54] and the MDR ESKAPE pathogens Enterococcus faecium LUH15122, S. aureus LUH14616, Klebsiella pneumoniae LUH15104, A. baumannii RUH875 [55], Pseudomonas aeruginosa LUH15103, Enterobacter cloacae LUH15114, and the colistin-resistant Escherichia coli LUH15117. Before each experiment, bacteria from frozen stocks were cultured at 37 °C for 18–24 h on sheep blood agar plates (BioMérieux, Marcy-l’Étoile, France). All strains were then cultured from colonies either in tryptic soy broth (TSB; Oxoid, Basingstoke, UK) for A. baumannii, S. aureus, and E. faecium, or in brain heart infusion broth (BHI; Oxoid) for K. pneumoniae, P. aeruginosa, E. cloacae, and E. coli at 37 °C with shaking at 120 rpm for 18–24 h. Subsequently, bacteria were cultured to mid-logarithmic phase in the media described above at 37 °C with shaking at 120 rpm for 3 h. Bacteria were then washed twice with PBS and diluted to the required inoculum suspension concentration in Roswell Park Memorial Institute (RPMI)-1640 medium containing 20 mM HEPES and L-glutamine but without sodium bicarbonate (Sigma-Aldrich; hereafter referred to as RPMI), based on optical density at 620 nm. RPMI was selected because it supports bacterial growth without impairing AMP activity.
# (§2) Bactericidal activity was assessed as described by de Breij et al.. Briefly, mid-logarithmic phase bacterial cultures were diluted to a final concentration of 1 × 10^7 colony-forming units (CFU)/mL in RPMI. Then, 10 µL was added to a final volume of 100 µL in RPMI (final concentration: 1 × 10^6 CFU/mL). Cultures were exposed to peptides either in RPMI or RPMI supplemented with 50% (v/v) human plasma (hereafter referred to as 50% plasma), obtained from four healthy volunteers after informed consent, frozen after collection, and pooled (Sanquin, Amsterdam, The Netherlands). Assays were performed in duplicate using round-bottom polypropylene microtiter plates (Costar, Arlington, VA, USA) and repeated three times. In the initial screening phase (Table 1, Table 2 and Table S1), peptide solutions of 1, 10, and 100 μM (final concentration) were tested against A. baumannii RUH875 and S. aureus JAR060131 in RPMI and in 50% plasma. After this selection process, two lead candidates, their RI variants, and reference peptides were tested with a final concentration range of 0.12 to 120 µM (two-fold dilutions) in RPMI and in 50% plasma (Table 3). The peptides were also tested against ESKAPE pathogens, with Synthetic Antimicrobial and Antibiofilm Peptide (SAAP)-148 as a reference peptide (Table 4).RPMI or 50% plasma served as no-treatment controls. After 2 and 18 h of incubation at 37 °C with shaking at 120 rpm in a humidified environment, the numbers of viable bacteria were quantified. Bactericidal activity was expressed as the lethal concentration 99.9% (LC99.9), defined as the lowest peptide concentration that killed ≥99.9% of bacteria within 2 h (LC99.9_2h) or 18 h (LC99.9_18h) compared to the initial inoculum.
# S. aureus JAR060131 = assay type: cell-based
# Procedure: as §1, §2
# P. aeruginosa LUH15103 = assay type: cell-based
# Procedure: as §1, §2
# E. coli LUH15117 = assay type: cell-based
# Procedure: as §1, §2
# K. pneumoniae LUH15104 = assay type: cell-based
# Procedure: as §1, §2
# MDR ESKAPE pathogens = assay: Bactericidal activity (LC99.9), statements for the whole panel; assay type: cell-based
# Procedure: as §1, §2
# [2] = test system: A. baumannii RUH875 biofilm; assay: Biofilm killing; assay type: cell-based, Acinetobacter baumannii; conditions: for Concentration killing ≥3 log CFU of A. baumannii biofilm within 2 h: 24 h biofilm, 2 h treatment in PBS, 1.88-120 μM, vs untreated biofilm
# Procedure: Mid-logarithmic phase cultures of A. baumannii RUH875 or S. aureus JAR060131 were diluted to 1 × 10^8 CFU/mL in RPMI supplemented with 1% glucose. A total of 100 μL of each suspension was added to flat-bottom polystyrene 96-well microplates (Costar) and incubated under static conditions at 37 °C in a humidified atmosphere for 24 h to allow biofilm formation. After 24 h, planktonic bacteria were removed, and wells were carefully washed with 100 μL PBS [60]. […] Control samples were exposed to 100 μL of PBS only.
# Biofilms were treated at 37 °C for either 2 or 24 h. […] Plates were sealed and sonicated for 5 min (Elmasonic, Singen, Germany; 45 kHz) at room temperature to dislodge adherent bacteria. […] Quantitative cultures were performed by plating serial 10-fold dilutions on sheep blood agar, and results were expressed as log10 CFU per well. The lower limit of detection was three CFU. Each condition was tested in six replicates.
substance,measurement,setting,value
Ac-KRWVKILKKVWRFL-NH2 [GDST-045],Cytotoxicity Metabolic Activity <70%,[1],3.75 µM
same,LC99.9 A. baumannii RUH875 50% Plasma 2 h,"A. baumannii RUH875; RUH875, 2 h",1.88 µM
same,LC99.9 A. baumannii RUH875 50% Plasma 18 h,"A. baumannii RUH875; RUH875, 18 h",0.94 µM
same,LC99.9 S. aureus JAR060131 50% Plasma 2 h,"S. aureus JAR060131; JAR060131, 2 h",3.75 µM
same,LC99.9 S. aureus JAR060131 RPMI 2 h,"S. aureus JAR060131; JAR060131, 2 h",0.94 µM
same,LC99.9 S. aureus JAR060131 50% Plasma 18 h,"S. aureus JAR060131; JAR060131, 18 h",1.88 µM
same,LC99.9 P. aeruginosa LUH15103 50% Plasma 2 h,"P. aeruginosa LUH15103; LUH15103, 2 h",60 µM
same,LC99.9 P. aeruginosa LUH15103 RPMI 2 h,"P. aeruginosa LUH15103; LUH15103, 2 h",1.88 µM
same,LC99.9 P. aeruginosa LUH15103 50% Plasma 18 h,"P. aeruginosa LUH15103; LUH15103, 18 h",30 µM
same,LC99.9 P. aeruginosa LUH15103 RPMI 18 h,"P. aeruginosa LUH15103; LUH15103, 18 h",3.75 µM
same,LC99.9 E. coli LUH15117 RPMI 2 h,"E. coli LUH15117; LUH15117, 2 h",0.94 µM
same,LC99.9 E. coli LUH15117 RPMI 18 h,"E. coli LUH15117; LUH15117, 18 h",0.94 µM
same,LC99.9 K. pneumoniae LUH15104 50% Plasma 2 h,"K. pneumoniae LUH15104; LUH15104, 2 h",15 µM
same,LC99.9 K. pneumoniae LUH15104 RPMI 2 h,"K. pneumoniae LUH15104; LUH15104, 2 h",0.94 µM
same,LC99.9 K. pneumoniae LUH15104 50% Plasma 18 h,"K. pneumoniae LUH15104; LUH15104, 18 h",7.5 µM
same,LC99.9 K. pneumoniae LUH15104 RPMI 18 h,"K. pneumoniae LUH15104; LUH15104, 18 h",1.88 µM
same,Concentrations killing ESKAPE pathogens in 50% plasma within 2 h,"MDR ESKAPE pathogens; 50% plasma, 2 h, range over species",0.94 to 120 µM
same,Concentrations killing ESKAPE pathogens in 50% plasma after 18 h,"MDR ESKAPE pathogens; 50% plasma, 18 h, range over species",0.94 to 30 µM
same,Concentrations killing ESKAPE pathogens in RPMI within 2 h,"MDR ESKAPE pathogens; RPMI, 2 h, range over species",0.94 to 15 µM
same,Concentration killing ≥3 log CFU of A. baumannii biofilm within 2 h,[2],60 µM
same,"Reduction in A. baumannii biofilm CFU, 24 h treatment","[2]; at ≥60 µM, 24 h treatment",3.5 log
"Ac-LKRVWKRVFKLLKRYWRQLKKPVR-NH2 (N-terminus and C-terminus assumed) [SAAP-148, reference compound]",Cytotoxicity Metabolic Activity <70%,[1],3.75 µM
same,Reduction in activity in plasma after 18 h,"MDR ESKAPE pathogens; 50% plasma vs RPMI, 18 h, except E. cloacae, A. baumannii, K. pneumoniae",8 to 16 fold
same,Concentration killing ≥3 log CFU of A. baumannii biofilm within 2 h,[2],≥ 15 µM
same,"A. baumannii biofilm killing, 24 h treatment (in words)","[2]; 24 h treatment, up to 120 µM",complete eradication
